pEC50: −log10 of the molar value.

The target of the test is T1, human GPR119 (hGPR119) (Homo sapiens, UniProt Q8TDV5).
T1 construct: expressed in transfected cells
T1 sequence (Q8TDV5 1-335): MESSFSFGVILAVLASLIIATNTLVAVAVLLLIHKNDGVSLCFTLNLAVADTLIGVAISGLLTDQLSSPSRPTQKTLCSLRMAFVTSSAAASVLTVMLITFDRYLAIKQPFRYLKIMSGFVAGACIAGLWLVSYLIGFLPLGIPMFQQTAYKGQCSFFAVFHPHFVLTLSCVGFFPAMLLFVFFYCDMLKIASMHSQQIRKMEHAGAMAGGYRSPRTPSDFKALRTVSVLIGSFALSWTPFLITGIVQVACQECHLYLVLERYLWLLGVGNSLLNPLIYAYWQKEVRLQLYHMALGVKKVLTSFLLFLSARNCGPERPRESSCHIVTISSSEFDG
The experiment in a line: cAMP accumulation assay (Cisbio cAMP Gs dynamic HTRF kit) in CHO-K1 cells stably expressing human GPR119. The note with it: 4-parameter fit; for Emax: 1 h, % activity normalized to Max and Min controls; for pEC50: 60 minutes at 37° C. In kind it is cell-based. A digest of the protocol: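 Read-out is HTRF 665/620 nm ratio after 1 h detection at ambient temperature, converted to % activity against positive and negative controls, EC50 and Max activity by 4-parameter fit. Compounds were titrated onto ~10,000 thawed hGPR119-CHO-K1 cells/well for 60 min at 37° C/5% CO2.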
(cAMP levels reflect the balance of adenylyl cyclase and phosphodiesterase activity.)

For `O=C(Cc1ncc(OCCCC2CCN(c3ncc(Cl)cn3)CC2)cc1F)N1CCN(C[C@H](O)[C@@H](O)[C@H](O)[C@H](O)CO)CC1` [Example 89, 2-(5-(3-(1-(5-chloropyrimidin-2-yl)piperidin-4-yl)propoxy)-3-fluoropyridin-2-yl)-1-(4-((2S,3R,4R,5R)-2,3,4,5,6-pentahydroxyhexyl)piperazin-1-yl)ethan-1-one], the Emax was in the range of 100 to 130% and the pEC50 is 6.00 to 7.00.

On to `O=C(Cc1ccc(OCCCC2CCN(c3ncc(Cl)cn3)CC2)nc1)N1CCN(C[C@H](O)[C@@H](O)[C@H](O)[C@H](O)CO)CC1` [Example 90, 2-(6-(3-(1-(5-chloropyrimidin-2-yl)piperidin-4-yl)propoxy)pyridin-3-yl)-1-(4-((2S,3R,4R,5R)-2,3,4,5,6-pentahydroxyhexyl)piperazin-1-yl)ethan-1-one], for which the maximum response (Emax) lay in the range of 100 to 130% and the pEC50 was 6.00 to 7.00.

The compound `O=C(Cc1ccc(OCCCC2CCN(c3ncc(Cl)cn3)CC2)c(F)c1)N1CCN(C[C@H](O)[C@@H](O)[C@H](O)[C@H](O)CO)CC1` [Example 91, 2-(4-(3-(1-(5-chloropyrimidin-2-yl)piperidin-4-yl)propoxy)-3-fluorophenyl)-1-(4-((2S,3R,4R,5R)-2,3,4,5,6-pentahydroxyhexyl)piperazin-1-yl)ethan-1-one] had an Emax of 100 to 130% and a negative-log EC50 (pEC50) of 6.00 to 7.00.

With `CCc1cnc(N2CCC(CCCOc3ccc(CC(=O)N4CCN(C[C@H](O)[C@@H](O)[C@H](O)[C@H](O)CO)CC4)c(F)c3)CC2)nc1` [Example 92, 2-(4-(3-(1-(5-ethylpyrimidin-2-yl)piperidin-4-yl)propoxy)-2-fluorophenyl)-1-(4-((2S,3R,4R,5R)-2,3,4,5,6-pentahydroxyhexyl)piperazin-1-yl)ethan-1-one], the Emax fell in the range of 100 to 130% and the pEC50 was at least 7.00.

The compound `CCc1cnc(N2CCC(CCCOc3cc(F)c(CC(=O)N4CCN(C[C@H](O)[C@@H](O)[C@H](O)[C@H](O)CO)CC4)c(F)c3)CC2)nc1` [Example 93, 2-(4-(3-(1-(5-ethylpyrimidin-2-yl)piperidin-4-yl)propoxy)-2,6-difluorophenyl)-1-(4-((2S,3R,4R,5R)-2,3,4,5,6-pentahydroxyhexyl)piperazin-1-yl)ethan-1-one] had an Emax of 100 to 130% and a pEC50 of at least 7.00.

Compound `CCCc1cnc(N2CCC(CCCOc3ccc(CC(=O)N4CCN(C[C@H](O)[C@@H](O)[C@H](O)[C@H](O)CO)CC4)c(F)c3)CC2)nc1` [Example 94, 2-(2-fluoro-4-(3-(1-(5-propylpyrimidin-2-yl)piperidin-4-yl)propoxy)phenyl)-1-(4-((2S,3R,4R,5R)-2,3,4,5,6-pentahydroxyhexyl)piperazin-1-yl)ethan-1-one] showed a maximal effect (Emax) of 100 to 130% and a pEC50 of at least 7.00.

As to `CCCc1cnc(N2CCC(CCCOc3cc(F)c(CC(=O)N4CCN(C[C@H](O)[C@@H](O)[C@H](O)[C@H](O)CO)CC4)c(F)c3)CC2)nc1` [Example 95, 2-(2,6-difluoro-4-(3-(1-(5-propylpyrimidin-2-yl)piperidin-4-yl)propoxy)phenyl)-1-(4-((2S,3R,4R,5R)-2,3,4,5,6-pentahydroxyhexyl)piperazin-1-yl)ethan-1-one], the Emax lay within 100 to 130% and the pEC50 is at least 7.00.

As for `CCOc1cnc(N2CCC(CCCOc3ccc(CC(=O)N4CCN(C[C@H](O)[C@@H](O)[C@H](O)[C@H](O)CO)CC4)c(F)c3)CC2)nc1` [Example 96, 2-(4-(3-(1-(5-ethoxypyrimidin-2-yl)piperidin-4-yl)propoxy)-2-fluorophenyl)-1-(4-((2S,3R,4R,5R)-2,3,4,5,6-pentahydroxyhexyl)piperazin-1-yl)ethan-1-one], the maximal response (Emax) is 100 to 130% and the negative-log EC50 (pEC50) was 6.00 to 7.00.

`CCOc1cnc(N2CCC(CCCOc3cc(F)c(CC(=O)N4CCN(C[C@H](O)[C@@H](O)[C@H](O)[C@H](O)CO)CC4)c(F)c3)CC2)nc1` [Example 97, 2-(4-(3-(1-(5-ethoxypyrimidin-2-yl)piperidin-4-yl)propoxy)-2,6-difluorophenyl)-1-(4-((2S,3R,4R,5R)-2,3,4,5,6-pentahydroxyhexyl)piperazin-1-yl)ethan-1-one]: the Emax lay in the range of 100 to 130% and the pEC50 is at least 7.00.

Compound `COCc1cnc(N2CCC(CCCOc3ccc(CC(=O)N4CCN(C[C@H](O)[C@@H](O)[C@H](O)[C@H](O)CO)CC4)c(F)c3)CC2)nc1` [Example 98, 2-(2-fluoro-4-(3-(1-(5-(methoxymethyl)pyrimidin-2-yl)piperidin-4-yl)propoxy)phenyl)-1-(4-((2S,3R,4R,5R)-2,3,4,5,6-pentahydroxyhexyl)piperazin-1-yl)ethan-1-one] showed a maximal response (Emax) of 100 to 130% and a pEC50 of 6.00 to 7.00.

For the compound `COCc1cnc(N2CCC(CCCOc3cc(F)c(CC(=O)N4CCN(C[C@H](O)[C@@H](O)[C@H](O)[C@H](O)CO)CC4)c(F)c3)CC2)nc1` [Example 99, 2-(2,6-difluoro-4-(3-(1-(5-(methoxymethyl)pyrimidin-2-yl)piperidin-4-yl)propoxy)phenyl)-1-(4-((2S,3R,4R,5R)-2,3,4,5,6-pentahydroxyhexyl)piperazin-1-yl)ethan-1-one], the maximal response (Emax) lay in the range of 100 to 130% and the pEC50 was at least 7.00.

In turn, `COCc1cnc(N2CCC(CCCCOc3ccc(CC(=O)N4CCN(C[C@H](O)[C@@H](O)[C@H](O)[C@H](O)CO)CC4)c(F)c3)CC2)nc1` [Example 100, 2-(2-fluoro-4-(4-(1-(5-(methoxymethyl)pyrimidin-2-yl)piperidin-4-yl)butoxy)phenyl)-1-(4-((2S,3R,4R,5R)-2,3,4,5,6-pentahydroxyhexyl)piperazin-1-yl)ethan-1-one] gave an Emax of 100 to 130% and a pEC50 of 6.00 to 7.00.

For the compound `COCc1cnc(N2CCC(CCCCOc3cc(F)c(CC(=O)N4CCN(C[C@H](O)[C@@H](O)[C@H](O)[C@H](O)CO)CC4)c(F)c3)CC2)nc1` [Example 101, 2-(2,6-difluoro-4-(4-(1-(5-(methoxymethyl)pyrimidin-2-yl)piperidin-4-yl)butoxy)phenyl)-1-(4-((2S,3R,4R,5R)-2,3,4,5,6-pentahydroxyhexyl)piperazin-1-yl)ethan-1-one], the Emax fell in the range of 100 to 130% and the negative logarithm of the EC50 (pEC50) was at least 7.00.

In turn, `COCc1cnc(N2CCC(CCOCc3ccc(CC(=O)N4CCN(C[C@H](O)[C@@H](O)[C@H](O)[C@H](O)CO)CC4)c(F)c3)CC2)nc1` [Example 103, 2-(2-fluoro-4-((2-(1-(5-(methoxymethyl)pyrimidin-2-yl)piperidin-4-yl)ethoxy)methyl)phenyl)-1-(4-((2S,3R,4R,5R)-2,3,4,5,6-pentahydroxyhexyl)piperazin-1-yl)ethan-1-one] gave an Emax of 50 to 100% and a pEC50 of under 5.00.

In turn, `CC(C)OC(=O)N1CCC(CCCOc2ccc(CC(=O)N3CCN(C[C@H](O)[C@@H](O)[C@H](O)[C@H](O)CO)CC3)c(F)c2)CC1` [Example 104, isopropyl 4-(3-(3-fluoro-4-(2-oxo-2-(4-((2S,3R,4R,5R)-2,3,4,5,6-pentahydroxyhexyl)piperazin-1-yl)ethyl)phenoxy)propyl)piperidine-1-carboxylate] had a maximum response (Emax) of 100 to 130% and a pEC50 of 6.00 to 7.00.

On to `O=C(Cc1ccc(OCCCC2CCN(C(=O)OC3(C(F)(F)F)COC3)CC2)cc1F)N1CCN(C[C@H](O)[C@@H](O)[C@H](O)[C@H](O)CO)CC1` [Example 105, 3-(trifluoromethyl)oxetan-3-yl 4-(3-(3-fluoro-4-(2-oxo-2-(4-((2S,3R,4R,5R)-2,3,4,5,6-pentahydroxyhexyl)piperazin-1-yl)ethyl)phenoxy)propyl)piperidine-1-carboxylate], for which the maximal effect (Emax) was 100 to 130% and the negative-log EC50 (pEC50) is 6.00 to 7.00.

On to `O=C(Cc1c(F)cc(OCCCC2CCN(C(=O)OC3(C(F)(F)F)COC3)CC2)cc1F)N1CCN(C[C@H](O)[C@@H](O)[C@H](O)[C@H](O)CO)CC1` [Example 106, 3-(trifluoromethyl)oxetan-3-yl 4-(3-(3,5-difluoro-4-(2-oxo-2-(4-((2S,3R,4R,5R)-2,3,4,5,6-pentahydroxyhexyl)piperazin-1-yl)ethyl)phenoxy)propyl)piperidine-1-carboxylate], for which the maximum response (Emax) was in the range of 100 to 130% and the negative logarithm of the EC50 (pEC50) was 6.00 to 7.00.

With `CC1(CCCCOc2ccc(CC(=O)N3CCN(C[C@H](O)[C@@H](O)[C@H](O)[C@H](O)CO)CC3)c(F)c2)CCN(c2ncc(Cl)cn2)CC1` [Example 107, 2-(4-(4-(1-(5-chloropyrimidin-2-yl)-4-methylpiperidin-4-yl)butoxy)-2-fluorophenyl)-1-(4-((2S,3R,4R,5R)-2,3,4,5,6-pentahydroxyhexyl)piperazin-1-yl)ethan-1-one], the maximal effect (Emax) was 100 to 130% and the negative logarithm of the EC50 (pEC50) is 6.00 to 7.00.

On to `O=C(Cc1ccc(OCCC2CC23CCN(c2ncc(Cl)cn2)CC3)cc1F)N1CCN(C[C@H](O)[C@@H](O)[C@H](O)[C@H](O)CO)CC1` (stereo partly drawn) [Example 108, 2-(4-(2-(6-(5-chloropyrimidin-2-yl)-6-azaspiro[2.5]octan-1-yl)ethoxy)-2-fluorophenyl)-1-(4-((2S,3R,4R,5R)-2,3,4,5,6-pentahydroxyhexyl)piperazin-1-yl)ethan-1-one], for which the maximal effect (Emax) fell in the range of 100 to 130% and the negative-log EC50 (pEC50) was 6.00 to 7.00.

Consider `O=C(Cc1ccc(OCCCC2CC23CCN(c2ncc(Cl)cn2)CC3)cc1F)N1CCN(C[C@H](O)[C@@H](O)[C@H](O)[C@H](O)CO)CC1` (stereo partly drawn) [Example 109, 2-(4-(3-(6-(5-chloropyrimidin-2-yl)-6-azaspiro[2.5]octan-1-yl)propoxy)-2-fluorophenyl)-1-(4-((2S,3R,4R,5R)-2,3,4,5,6-pentahydroxyhexyl)piperazin-1-yl)ethan-1-one], for which the Emax lay in the range of 100 to 130% and the negative logarithm of the EC50 (pEC50) was 6.00 to 7.00.

The Emax is the maximal effect, on the per cent scale that the assay sets. As a reminder, the pEC50 is −log10 of the EC50, conventionally taken in molar units. Low readings indicate a high EC50, high ones a low EC50.

These data come from patent US20240217983A1, “GPR119 AGONISTS” (Kallyope, Inc., priority 2021, published 2024).
